Measured values taken from US9993505B2, “Innervation of engineered structures” (WAKE FOREST UNIVERSITY HEALTH SCIENCES, priority 2012, dated 2018).

How the values were obtained:
[1] = tested on: intrinsically innervated internal anal sphincter (IAS) smooth muscle construct; test: Real time force generation of bioengineered IAS construct, initially intrinsically innervated (Example 1); assay type: cell-based, rabbit
[2] = tested on: initially non-innervated internal anal sphincter (IAS) smooth muscle construct; test: Real time force generation of bioengineered IAS construct, initially non-innervated, placed 1 mm away from the innervated construct (Example 1); assay type: cell-based, rabbit
[3] = tested on: initially non-innervated rabbit colon circular smooth muscle construct; test: Real time force generation of bioengineered colon smooth muscle construct, initially non-innervated (Example 2); assay type: cell-based
[4] = tested on: intrinsically innervated rabbit colon circular smooth muscle construct; test: Real time force generation of bioengineered colon smooth muscle construct, intrinsically innervated (Example 2); assay type: cell-based

CC(=O)OCC[N+](C)(C)C [Acetylcholine, acetylcholine]
force generation induced by acetylcholine ([1]; Acetylcholine 1 μM, day 20, innervated IAS construct): 153 μN | force generation induced by acetylcholine ([2]; Acetylcholine 1 μM, day 20, initially non-innervated IAS construct): 80 μN | average contraction induced by Ach ([3]; 1 μM Ach, non-innervated colon constructs): 130±28 μN | average contraction induced by Ach ([4]; 1 μM Ach, innervated colon constructs): 150±24 μN

[Cl-].[K+] [KCl, potassium chloride]
average contraction induced by KCl [3]: 224±42 μN | average contraction induced by KCl [4]: 300±24 μN

NC1=N[C@H](O)[C@H]2[C@H]3O[C@]4(O)O[C@@H]([C@@H](O)[C@@]2(N1)[C@@H]4O)[C@]3(O)CO [TTX, tetrodotoxin]
inhibition of EFS-induced relaxation by pre-treatment [1]: completely inhibited | inhibition of acetylcholine-induced force generation by pre-treatment [1]: 58% | inhibition of EFS-induced relaxation by pre-treatment [2]: completely inhibited | inhibition of acetylcholine-induced force generation by pre-treatment [2]: 40% | effect of TTX on EFS-induced relaxation [3]: completely blocked | effect of TTX on maximal Ach contraction [3]: reduced the maximal contraction | inhibition of VIP-induced relaxation in the presence of TTX [3]: 50% | attenuation of peak maximal Ach contraction in the presence of TTX [4]: 50-60% | effect of TTX preincubation on response to EFS [4]: completely abolished | inhibition of VIP-induced relaxation in the presence of TTX [4]: 60%

CN1[C@@H]2CC[C@H]1C[C@@H](OC(=O)C(CO)c1ccccc1)C2 (some centres unmarked) [atropine]
inhibition of acetylcholine-induced force generation by pre-treatment [1]: 90% | inhibition of acetylcholine-induced force generation by pre-treatment [2]: 75%

vasoactive intestinal peptide [VIP]
maximal relaxation induced by VIP ([3]; 1 μM VIP, non-innervated colon constructs): 120±18 μN | maximal relaxation induced by VIP ([4]; 1 μM VIP, innervated colon constructs): 145±15 μN
